Measurements as given in patent publication US10112929B2, “Lactams as inhibitors of rock” (BRISTOL-MYERS SQUIBB COMPANY, priority 2015, dated 2018).

Test system: porcine model of IL-1 beta-induced coronary stenosis
Settings: long term treatment; cited from earlier work

In the case of `O=S(=O)(c1cccc2cnccc12)N1CCCNCC1` [fasudil], the coronary constrictive remodeling is given as “promote a regression of coronary constrictive remodeling”.

For `O=S(=O)(c1cccc2cnccc12)N1CCCNCC1` [fasudil], the coronary stenosis is listed as “progressively reduce coronary stenosis”.

Test system: rat stroke model
Settings: in vivo; cited from earlier work

In the case of `O=S(=O)(c1cccc2cnccc12)N1CCCNCC1` [fasudil], the “infarct size and neurologic deficit” value is listed as “reduce both the infarct size and neurologic deficit”.

Biological target: ROCK2 (Homo sapiens (Human), UniProt O75116);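 also: rho kinase enzyme reaction halted with EDTA, phospho- and non-phospho peptide separated for read-out, kinase activity inhibition derived across a dose-response series, DMSO under 2%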
Settings: not given

Chain of ROCK2 (O75116 whole entry, species assumed): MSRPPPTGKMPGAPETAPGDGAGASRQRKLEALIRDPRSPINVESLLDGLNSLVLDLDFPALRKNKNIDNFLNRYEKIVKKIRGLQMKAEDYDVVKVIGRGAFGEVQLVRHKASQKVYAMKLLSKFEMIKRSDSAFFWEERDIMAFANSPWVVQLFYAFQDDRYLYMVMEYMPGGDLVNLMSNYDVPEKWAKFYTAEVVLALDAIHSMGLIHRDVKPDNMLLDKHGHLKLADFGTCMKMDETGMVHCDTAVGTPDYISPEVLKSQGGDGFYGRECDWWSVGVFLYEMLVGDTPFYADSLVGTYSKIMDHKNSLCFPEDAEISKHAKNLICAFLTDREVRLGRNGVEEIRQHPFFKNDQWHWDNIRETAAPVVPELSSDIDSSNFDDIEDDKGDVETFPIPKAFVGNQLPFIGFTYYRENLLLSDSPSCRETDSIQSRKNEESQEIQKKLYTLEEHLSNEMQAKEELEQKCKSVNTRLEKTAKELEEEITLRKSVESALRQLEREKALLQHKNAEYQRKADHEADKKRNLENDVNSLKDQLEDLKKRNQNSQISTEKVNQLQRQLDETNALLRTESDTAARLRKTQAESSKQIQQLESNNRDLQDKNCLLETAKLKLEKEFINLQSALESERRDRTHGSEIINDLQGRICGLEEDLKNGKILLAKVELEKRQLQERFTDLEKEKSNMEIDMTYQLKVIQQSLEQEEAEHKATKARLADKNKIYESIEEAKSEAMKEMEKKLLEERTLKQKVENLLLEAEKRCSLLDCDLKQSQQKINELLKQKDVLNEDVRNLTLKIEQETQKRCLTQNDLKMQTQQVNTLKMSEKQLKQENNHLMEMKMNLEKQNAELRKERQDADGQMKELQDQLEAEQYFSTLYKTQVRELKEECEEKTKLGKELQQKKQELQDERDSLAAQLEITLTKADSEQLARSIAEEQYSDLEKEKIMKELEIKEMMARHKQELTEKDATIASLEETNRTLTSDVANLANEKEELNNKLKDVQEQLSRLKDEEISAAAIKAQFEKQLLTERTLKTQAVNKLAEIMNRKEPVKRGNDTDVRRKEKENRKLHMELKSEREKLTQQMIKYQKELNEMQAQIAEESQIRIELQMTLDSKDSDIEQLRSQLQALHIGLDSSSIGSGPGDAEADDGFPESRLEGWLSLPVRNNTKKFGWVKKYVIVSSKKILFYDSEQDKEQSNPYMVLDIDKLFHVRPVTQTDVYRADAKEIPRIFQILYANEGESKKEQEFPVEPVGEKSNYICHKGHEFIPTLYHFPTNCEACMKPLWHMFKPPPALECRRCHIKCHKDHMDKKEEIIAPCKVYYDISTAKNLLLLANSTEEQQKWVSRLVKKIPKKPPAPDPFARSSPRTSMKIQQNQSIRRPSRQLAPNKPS

First: COc1cc(NC2CCN(c3ccc(-c4cn[nH]c4)c(OCCN(C)C)c3)C2=O)ccc1F (racemic) [Example 347, 1-(3-(2-(dimethylamino)ethoxy)-4-(1H-pyrazol-4-yl)phenyl)-3-((4-fluoro-3-methoxyphenyl)amino)pyrrolidin-2-one]
Second: CCOc1cc(N2CCC(Nc3ccc(F)c(OC)c3)C2=O)ccc1-c1cn[nH]c1 (single isomer, unassigned) [Example 39, 1-(3-ethoxy-4-(1H-pyrazol-4-yl)phenyl)-3-((4-fluoro-3-methoxyphenyl)amino)pyrrolidin-2-one]
The IC50 of the first is higher: 100 to 2200 nM for the first, 10 to 100 nM for the second.

`COc1ccc(NC2CCN(c3ccc(-c4cn[nH]c4)c(Cl)c3)C2=O)cc1F` (single isomer, unassigned) [Example 157, 1-(3-chloro-4-(1H-pyrazol-4-yl)phenyl)-3 ((3-fluoro-4-methoxyphenyl)amino) pyrrolidin-2-one] and `COc1ccc(NC2CCN(c3ccc(-c4cn[nH]c4)cc3)C2=O)cc1F` (single isomer, unassigned) [Example 14, 1-(4-(1H-pyrazol-4-yl)phenyl)-3-((3-fluoro-4-methoxyphenyl)amino)pyrrolidin-2-one] fall in the same range of IC50: 100 to 2200 nM for the first, 100 to 2200 nM for the second.

First: O=C1C(Nc2ccc3c(c2)OC(F)(F)O3)CCN1c1ccc(-c2cn[nH]c2)cc1 (single isomer, unassigned) [Example 54, 1-(4-(1H-pyrazol-4-yl)phenyl)-3-((2,2-difluorobenzo[d][1,3]dioxol-5-yl)amino)pyrrolidin-2-one]
Second: COc1cc(F)cc(NC2CCN(c3ccc(-c4cn[nH]c4)cc3)C2=O)c1 (single isomer, unassigned) [Example 27, 1-(4-(1H-pyrazol-4-yl)phenyl)-3-((3-fluoro-5-methoxyphenyl)amino)pyrrolidin-2-one]
The IC50 of the first is higher: 100 to 2200 nM for the first, under 10 nM for the second.

`COc1ccc(NC2CCN(c3ccc(-c4cn[nH]c4)cc3F)C2=O)cc1F` (single isomer, unassigned) [Example 345, 1-(2-fluoro-4-(1H-pyrazol-4-yl)phenyl)-3-((3-fluoro-4-methoxyphenyl)amino) pyrrolidin-2-one] and `COc1c(F)cccc1NC1CCN(c2ccc(-c3cn[nH]c3)cc2F)C1=O` (single isomer, unassigned) [Example 343, 3-((3-fluoro-2-methoxyphenyl)amino)-1-(2-fluoro-4-(1H-pyrazol-4-yl)phenyl) pyrrolidin-2-one] fall in the same range of IC50: 100 to 2200 nM for the first, 100 to 2200 nM for the second.

First: Cc1nc(N2CCC(Nc3cccc(OCC4CC4)c3)C2=O)ccc1-c1cn[nH]c1 (single isomer, unassigned) [Example 191, 3-((3-(cyclopropylmethoxy)phenyl)amino)-1-(6-methyl-5-(1H-pyrazol-4-yl)pyridin-2-yl)pyrrolidin-2-one]
Second: CCOc1cccc(NC2CCN(c3ccc(-c4cn[nH]c4)c(OC)n3)C2=O)c1 (single isomer, unassigned) [Example 219, 3-((3-ethoxyphenyl)amino)-1-(6-methoxy-5-(1H-pyrazol-4-yl)pyridin-2-yl)pyrrolidin-2-one]
The IC50 of the first is higher: 10 to 100 nM for the first, under 10 nM for the second. The second is the more potent here.

`COc1ccc(NC2CCN(c3ccc(-c4cn[nH]c4)cc3)C2=O)c(F)c1` (single isomer, unassigned) [Example 20, 1-(4-(1H-pyrazol-4-yl)phenyl)-3-((2-fluoro-4-methoxyphenyl)amino)pyrrolidin-2-one] and `CCOc1cc(N2CCC(Nc3cc(OC)ccc3F)C2=O)ccc1-c1cn[nH]c1` (single isomer, unassigned) [Example 41, 1-(3-ethoxy-4-(1H-pyrazol-4-yl)phenyl)-3-((2-fluoro-5-methoxyphenyl)amino)pyrrolidin-2-one] fall in the same range of IC50: 100 to 2200 nM for the first, 100 to 2200 nM for the second.

Compared with `COc1cc(F)ccc1NC1CCN(c2ccc(-c3cn[nH]c3)c(OC)c2)C1=O` (single isomer, unassigned) [Example 144, 3-((4-fluoro-2-methoxyphenyl)amino)-1-(3-methoxy-4-(1H-pyrazol-4-yl)phenyl) pyrrolidin-2-one], `COc1cc(N2CCC(Nc3c(F)cccc3OC)C2=O)ccc1-c1cn[nH]c1` (single isomer, unassigned) [Example 136, 3-((2-fluoro-6-methoxyphenyl)amino)-1-(3-methoxy-4-(1H-pyrazol-4-yl)phenyl) pyrrolidin-2-one] is lower in IC50: 100 to 2200 nM for the first, 10 to 100 nM for the second. The second is the more potent here.

`CCc1nc(N2CCC(Nc3cccc(OC)c3)C2=O)ccc1-c1cn[nH]c1` (single isomer, unassigned) [Example 314, 1-(6-ethyl-5-(1H-pyrazol-4-yl)pyridin-2-yl)-3-((3-methoxyphenyl)amino) pyrrolidin-2-one] and `COc1cccc(NC2CCN(c3ccc(-c4cn[nH]c4)cn3)C2=O)c1` (single isomer, unassigned) [Example 86, 1-(5-(1H-pyrazol-4-yl)pyridin-2-yl)-3-((3-methoxyphenyl)amino)pyrrolidin-2-one] cannot be ordered by IC50: under 10 nM for the first, under 10 nM for the second.

First: CCc1cc(N2CCC(Nc3ccc(F)c(OC)c3)C2=O)ccc1-c1cn[nH]c1 (single isomer, unassigned) [Example 242, 1-(3-ethyl-4-(1H-pyrazol-4-yl)phenyl)-3-((4-fluoro-3-methoxyphenyl)amino) pyrrolidin-2-one]
Second: COCc1cc(N2CCC(Nc3ccc(F)c(OC)c3)C2=O)ccc1-c1cn[nH]c1 (single isomer, unassigned) [Example 182, 3-((4-fluoro-3-methoxyphenyl)amino)-1-(3-(methoxymethyl)-4-(1H-pyrazol-4-yl)phenyl)pyrrolidin-2-one]
The IC50 of the first is lower: 10 to 100 nM for the first, 100 to 2200 nM for the second. The first is the more potent here.

First: COc1cc(F)cc(NC2CCN(c3ccc(-c4cn[nH]c4)cc3Cl)C2=O)c1 (single isomer, unassigned) [Example 169, 1-(2-chloro-4-(1H-pyrazol-4-yl)phenyl)-3 ((3-fluoro-5-methoxyphenyl)amino) pyrrolidin-2-one]
Second: COc1cc(F)cc(NC2CCN(c3ccc(-c4cn[nH]c4)cn3)C2=O)c1 (single isomer, unassigned) [Example 87, 1-(5-(1H-pyrazol-4-yl)pyridin-2-yl)-3-((3-fluoro-5-methoxyphenyl)amino)pyrrolidin-2-one]
The IC50 of the first is higher: 100 to 2200 nM for the first, 10 to 100 nM for the second. The second is the more potent here.

First: COc1cccc(OC2CCN(c3ccc(-c4ccc5cn[nH]c5c4)c(OC)n3)C2=O)c1 (single isomer, unassigned) [Example 125, 1-(5-(1H-indazol-6-yl)-6-methoxypyridin-2-yl)-3-(3-methoxyphenoxy)pyrrolidin-2-one]
Second: COc1cccc(NC2CCN(c3ccc(-c4cn[nH]c4)c(OC)c3)C2=O)c1 (single isomer, unassigned) [Example 75, 1-(3-methoxy-4-(1H-pyrazol-4-yl)phenyl)-3-((3-methoxyphenyl)amino)pyrrolidin-2-one]
The IC50 of the first is higher: 100 to 2200 nM for the first, under 10 nM for the second.

Compared with `COc1cc(F)cc(NC2CCN(c3ccc(-c4cn[nH]c4)c(OC)c3)C2=O)c1` (single isomer, unassigned) [Example 138, 3-((3-fluoro-5-methoxyphenyl)amino)-1-(3-methoxy-4-(1H-pyrazol-4-yl)phenyl) pyrrolidin-2-one], `COc1cc(F)cc(NC2CCN(c3ncc(-c4cn[nH]c4)cc3F)C2=O)c1` (single isomer, unassigned) [Example 360, 1-(3-fluoro-5-(1H-pyrazol-4-yl)pyridin-2-yl)-3-((3-fluoro-5-methoxyphenyl)amino) pyrrolidin-2-one] is higher in IC50: under 10 nM for the first, 100 to 2200 nM for the second. The first is the more potent here.

First: COc1cccc(NC2CCN(c3ccc(-c4cn[nH]c4)c(C(F)(F)F)c3)C2=O)c1 (single isomer, unassigned) [Example 368, 1-(4-(1H-pyrazol-4-yl)-3-(trifluoromethyl)phenyl)-3-((3-methoxyphenyl)amino) pyrrolidin-2-one]
Second: COc1cc(NC2CCN(c3ccc(-c4cn[nH]c4)nc3)C2=O)ccc1F (single isomer, unassigned) [Example 300, 1-(6-(1H-pyrazol-4-yl)pyridin-3-yl)-3-((4-fluoro-3-methoxyphenyl)amino)pyrrolidin-2-one]
The IC50 of the first is higher: 100 to 2200 nM for the first, 10 to 100 nM for the second.

Test system: neointimal formation in rats
Settings: cited from earlier work

In the case of `C[C@@H](N)[C@H]1CC[C@H](C(=O)Nc2ccncc2)CC1` [Example Y-27632], the neointimal formation is given as “inhibited neointimal formation”.

Test system: spontaneously hypertensive rat, renal hypertensive rat and deoxycortisone acetate salt hypertensive rat models
Settings: control rats; cited from earlier work

In the case of `C[C@@H](N)[C@H]1CC[C@H](C(=O)Nc2ccncc2)CC1` [Example Y-27632], the blood pressure is given as “only a minor effect on blood pressure”.

Same assay, conditions: three rat models of hypertension; cited from earlier work

In the case of `C[C@@H](N)[C@H]1CC[C@H](C(=O)Nc2ccncc2)CC1` [Example Y-27632], the blood pressure is given as “significantly decrease blood pressure”.

Test system: Dahl salt-sensitive rats
Settings: rat, in vivo; cited from earlier work

In the case of `C[C@@H](N)[C@H]1CC[C@H](C(=O)Nc2ccncc2)CC1` [Example Y-27632], the “ventricular hypertrophy, fibrosis and function” value is listed as “improve ventricular hypertrophy, fibrosis and function”.
